Source: patent publication US10138274B2, “Crystal of cyclic peptide compound, preparation method for same and uses thereof” (SHANGHAI TECHWELL BIOPHARMACEUTICAL CO., LTD, priority 2014, dated 2018)
Numbered stars: 1 amine (or outer) side, 2 acyl side, 3 side chain; on linkers, the order of the positions; unused ones are H or OH. Bridge positions count the residues as written; N and C are the ends. Square brackets hold non-standard residues; d marks the D form. Peptide text beside a SMILES is read from it. * marks the point of attachment. hTyr(3S-OH,4S-OH,3'-OSO3H) = N[C@H](C(=O)O)[C@H](O)[C@@H](O)c1ccc(O)c(OS(=O)(=O)O)c1; Orn(4R-OH,5R-OH) = O=C([C@H](C[C@@H](O)[C@@H](O)N[*:3])N[*:1])[*:2]; Pro(3S-OH,4S-Me) = C[C@H]1CN[C@H](C(=O)O)[C@H]1O; X1 = CCCCCOc1ccc(-c2cc(-c3ccc(C(=O)*)cc3)no2)cc1; Gln(3R-OH) = NC(=O)C[C@@H](O)[C@H](N)C(=O)O; Hyp = O=C(O)[C@@H]1C[C@@H](O)CN1

Assay: Purity and stability test: samples sealed at 25° C. for 30 days, purity by HPLC
Assay type: physicochemical
Conditions: for Purity of initial sample: before storage, HPLC purity (baseline of the stability test); for Purity of sample after stored at 25° C. for 30 days: sealed, HPLC purity
Description: High performance liquid chromatography (HPLC) is a common method for determining the purity of a compound, wherein a liquid is used as the mobile phase and a high-pressure transfusion system is used for pumping the mobile phase, such as single solvents with different polarities, a mixture of solvents at different proportions, or buffers, into a column packed with a stationary phase. Each component is separated in the column, and then enters into a detector for detection, thereby analyzing a sample. In the present invention, HPLC is used for determining the purity of the compound of formula I and studying the stability of a sample. The HPLC method is as follows:
Analysis Column: YMC-ODS 250×4.6 mm, 5 μm;
Mobile phase: acetonitrile:phosphate buffer (pH 3.0)=45:70;
Column temperature: 35° C.;
Diluent: aqueous phosphate buffer;
Detection wavelength: 210 nm;
In this Example, the purity and stability of the samples obtained in Comparative Examples and Examples were compared. The method used is as follows:
Crystals A-C of the compound of formula I prepared in Examples 2, 11 and 15, the crystal of B82 type obtained in Comparative Example 1 and the amorphous solid obtained in Example 1 were taken respectively and sealed at 25° C. for 30 days. And then the content of impurities in the sample was analyzed. Results of comparing the stability of crystals A-C of the compound of formula I according to the present invention, the crystal of B82 type and the amorphous solid are shown in the following table: […]

| Compound | Purity of initial sample | Purity of sample after stored at 25° C. for 30 days | stability compared with the B82-type crystal and the amorphous solid (result in words) |
| --- | --- | --- | --- |
| CCCCCOc1ccc(-c2cc(-c3ccc(C(=O)N[C@H]4C[C@@H](O)[C@@H](O)NC(=O)[C@@H]5[C@@H](O)[C@@H](C)CN5C(=O)[C@H]([C@H](O)CC(N)=O)NC(=O)[C@H]([C@H](O)[C@@H](O)c5ccc(O)c(OS(=O)(=O)[O-])c5)NC(=O)[C@@H]5C[C@@H](O)CN5C(=O)[C@H]([C@@H](C)O)NC4=O)cc3)no2)cc1.[Na+] [Amorphous solid, Sodium 5-[(1S,2S)-2-[(3S,6S,9S,11R,15S,18S,20R,21R,24S,25S,26S)-3-[(R)-2-carbamoyl-1-hydroxyethyl]-11,20,21,25-tetrahydroxy-15-[(R)-1-hydroxyethyl]-26-methyl-2,5,8,14,17,23-hexaoxo-18-[4-[5-(4-pentoxyphenyl)isoxazol-3-yl]benzoylamino]-1,4,7,13,16,22-hexaazatricyclo[22.3.0.0^9,13]heptacosan-6-yl]-1,2-dihydroxyethyl]-2-hydroxy phenyl sulfate., reference compound] (X1-[Orn(4R-OH,5R-OH)]T[Hyp][hTyr(3S-OH,4S-OH,3'-OSO3H)][Gln(3R-OH)][Pro(3S-OH,4S-Me)]; lactam 1-C) | 99.38% | 89.27% | – |
| CCCCCOc1ccc(-c2cc(-c3ccc(C(=O)N[C@H]4C[C@@H](O)[C@@H](O)NC(=O)[C@@H]5[C@@H](O)[C@@H](C)CN5C(=O)[C@H]([C@H](O)CC(N)=O)NC(=O)[C@H]([C@H](O)[C@@H](O)c5ccc(O)c(OS(=O)(=O)[O-])c5)NC(=O)[C@@H]5C[C@@H](O)CN5C(=O)[C@H]([C@@H](C)O)NC4=O)cc3)no2)cc1.[Na+] [B82-type Crystal, Sodium 5-[(1S,2S)-2-[(3S,6S,9S,11R,15S,18S,20R,21R,24S,25S,26S)-3-[(R)-2-carbamoyl-1-hydroxyethyl]-11,20,21,25-tetrahydroxy-15-[(R)-1-hydroxyethyl]-26-methyl-2,5,8,14,17,23-hexaoxo-18-[4-[5-(4-pentoxyphenyl)isoxazol-3-yl]benzoylamino]-1,4,7,13,16,22-hexaazatricyclo[22.3.0.0^9,13]heptacosan-6-yl]-1,2-dihydroxyethyl]-2-hydroxy phenyl sulfate., reference compound] (X1-[Orn(4R-OH,5R-OH)]T[Hyp][hTyr(3S-OH,4S-OH,3'-OSO3H)][Gln(3R-OH)][Pro(3S-OH,4S-Me)]; lactam 1-C) | 99.50% | 96.98% | – |
| CCCCCOc1ccc(-c2cc(-c3ccc(C(=O)N[C@H]4C[C@@H](O)[C@@H](O)NC(=O)[C@@H]5[C@@H](O)[C@@H](C)CN5C(=O)[C@H]([C@H](O)CC(N)=O)NC(=O)[C@H]([C@H](O)[C@@H](O)c5ccc(O)c(OS(=O)(=O)[O-])c5)NC(=O)[C@@H]5C[C@@H](O)CN5C(=O)[C@H]([C@@H](C)O)NC4=O)cc3)no2)cc1.[Na+] [Crystal A, Sodium 5-[(1S,2S)-2-[(3S,6S,9S,11R,15S,18S,20R,21R,24S,25S,26S)-3-[(R)-2-carbamoyl-1-hydroxyethyl]-11,20,21,25-tetrahydroxy-15-[(R)-1-hydroxyethyl]-26-methyl-2,5,8,14,17,23-hexaoxo-18-[4-[5-(4-pentoxyphenyl)isoxazol-3-yl]benzoylamino]-1,4,7,13,16,22-hexaazatricyclo[22.3.0.0^9,13]heptacosan-6-yl]-1,2-dihydroxyethyl]-2-hydroxy phenyl sulfate.] (X1-[Orn(4R-OH,5R-OH)]T[Hyp][hTyr(3S-OH,4S-OH,3'-OSO3H)][Gln(3R-OH)][Pro(3S-OH,4S-Me)]; lactam 1-C) | 99.68% | 99.65% | significantly superior than that of the crystal of B82 type |
| CCCCCOc1ccc(-c2cc(-c3ccc(C(=O)N[C@H]4C[C@@H](O)[C@@H](O)NC(=O)[C@@H]5[C@@H](O)[C@@H](C)CN5C(=O)[C@H]([C@H](O)CC(N)=O)NC(=O)[C@H]([C@H](O)[C@@H](O)c5ccc(O)c(OS(=O)(=O)[O-])c5)NC(=O)[C@@H]5C[C@@H](O)CN5C(=O)[C@H]([C@@H](C)O)NC4=O)cc3)no2)cc1.[Na+] [Crystal B, Sodium 5-[(1S,2S)-2-[(3S,6S,9S,11R,15S,18S,20R,21R,24S,25S,26S)-3-[(R)-2-carbamoyl-1-hydroxyethyl]-11,20,21,25-tetrahydroxy-15-[(R)-1-hydroxyethyl]-26-methyl-2,5,8,14,17,23-hexaoxo-18-[4-[5-(4-pentoxyphenyl)isoxazol-3-yl]benzoylamino]-1,4,7,13,16,22-hexaazatricyclo[22.3.0.0^9,13]heptacosan-6-yl]-1,2-dihydroxyethyl]-2-hydroxy phenyl sulfate.] (X1-[Orn(4R-OH,5R-OH)]T[Hyp][hTyr(3S-OH,4S-OH,3'-OSO3H)][Gln(3R-OH)][Pro(3S-OH,4S-Me)]; lactam 1-C) | 99.55% | 99.50% | – |
| CCCCCOc1ccc(-c2cc(-c3ccc(C(=O)N[C@H]4C[C@@H](O)[C@@H](O)NC(=O)[C@@H]5[C@@H](O)[C@@H](C)CN5C(=O)[C@H]([C@H](O)CC(N)=O)NC(=O)[C@H]([C@H](O)[C@@H](O)c5ccc(O)c(OS(=O)(=O)[O-])c5)NC(=O)[C@@H]5C[C@@H](O)CN5C(=O)[C@H]([C@@H](C)O)NC4=O)cc3)no2)cc1.[Na+] [Crystal C, Sodium 5-[(1S,2S)-2-[(3S,6S,9S,11R,15S,18S,20R,21R,24S,25S,26S)-3-[(R)-2-carbamoyl-1-hydroxyethyl]-11,20,21,25-tetrahydroxy-15-[(R)-1-hydroxyethyl]-26-methyl-2,5,8,14,17,23-hexaoxo-18-[4-[5-(4-pentoxyphenyl)isoxazol-3-yl]benzoylamino]-1,4,7,13,16,22-hexaazatricyclo[22.3.0.0^9,13]heptacosan-6-yl]-1,2-dihydroxyethyl]-2-hydroxy phenyl sulfate.] (X1-[Orn(4R-OH,5R-OH)]T[Hyp][hTyr(3S-OH,4S-OH,3'-OSO3H)][Gln(3R-OH)][Pro(3S-OH,4S-Me)]; lactam 1-C) | 99.64% | 99.43% | – |
